“Also recorded” adds a separate entry of the source.
Assays:
HNSCC-1A cells [1] = assay: LC3B-II levels by Western blotting (autophagy); assay type: cell-based, human; settings: 4 μM, 1.5 hours
Description: LC3B-II levels were measured via Western blotting. Image-processing software was used to quantify the band intensity from the blots.
(§1) Cellular lysates in radioimmunoprecipitation assay (RIPA) buffer containing a protease inhibitor cocktail (Sigma-Aldrich, St. Louis, Missouri, United States of America) were normalized by the total protein level and analyzed by sodium dodecyl sulfate-polyacrylamide gel electrophoresis (SDS-PAGE) and immunoblotting with corresponding antibodies. For immunoprecipitation, precleared cytosolic fractions were incubated overnight with 2 μg of corresponding antibodies at 4° C., followed by 1-hour incubation with Protein A/G Agarose (Santa Cruz Biotechnology, Inc., Dallas, Texas, United States of America) (50 μl of a 50% slurry). Resin was washed three to five times, and pulled-down proteins were analyzed by SDS-PAGE and Western blotting with corresponding antibodies.

HNSCC-1A cells [2] = assay: Confocal immunofluorescence, colocalization of ceramide and Tom20; assay type: cell-based, human; settings: 1 μM or 4 μM, 1.5 hours, compared to vehicle and LCL-461
HNSCC-1A cells [3] = assay: ACO2 levels by Western blotting (lethal mitophagy); assay type: cell-based, human; settings: 4 μM, 48 hours
Description: FIG. 6 is a graph showing levels of aconitase 2 (ACO2) (reported as normalized cumulative pixel intensity) in head and neck squamous cell carcinoma (HNSCC-1A) cells incubated with 4 micromolar (μM) concentrations of a pyridinium-substituted ceramide-based compound (LCL-461), the selenite conjugated salt of a pyridinium-substituted ceramide-based compound (LCL-768), or vehicle for 48 hours. ACO2 levels were measured via Western blotting. Image-processing software was used to quantify the band intensity from the blots.

HNSCC-1A cells [4] = assay: ATP levels (lethal mitophagy); assay type: cell-based, human; settings: 4 μM, 48 hours
Description: FIG. 7 is a graph showing adenosine triphosphate (ATP) activity in head and neck squamous cell carcinoma (HNSCC-1A) cells incubated with 4 micromolar (μM) concentrations of a pyridinium-substituted ceramide-based compound (LCL-461), the selenite conjugated salt of a pyridinium-substituted ceramide-based compound (LCL-768), or vehicle for 48 hours. ATP levels in the samples were measured, and all samples were normalized to a standard curve and then to vehicle activity.

HNSCC-1A cells [5] = assay: Cell death / MTT cell viability assay; assay type: cell-based, human
[6] = system: orthotopic GB U118-xenograft-derived tumor; assay: Orthotopic GB U118 xenograft in brains of SCID mice; assay type: in vivo; settings: 1 mg/kg/day for 14 days, female SCID mice
[7] = Maximum tolerated dose in SCID mice; assay type: in vivo
normal murine astrocytes = assay: MTT cell viability, normal murine astrocytes; assay type: cell-based; settings: 5 μM, 24 hour treatment
[8] = system: non-cancerous adjacent tissue organoids; assay: Ex vivo non-cancerous adjacent tissue organoids, mitophagy; assay type: cell-based, human; settings: ex vivo treatment, same patient
Source text: (§2) To validate the clinical relevance of the activation of mitophagy, 2D organoids^4 were developed using tumor tissues obtained from a patient with HNSCC. […] The co-localization of GM130/Calnexin was used as a control.

HNSCC organoids [9] = settings: ex vivo treatment, MALDI-Imaging
Source text: as §2

UM-SCC-1A cells [10] = assay: CYTO-ID mitophagy detection in UM-SCC-1A cells with shSCR or shLC3; assay type: cell-based, human
HNSCC organoids [11] = assay: Ex vivo 2D HNSCC patient organoids, CerS1/Tom20 co-localization (mitophagy); assay type: cell-based, human; settings: ex vivo treatment
Source text: FIG. 14A is a series of microscopy images showing the H&E staining (top row) and fluorescence imaging of the co-localization of translocase of outer mitochondrial membrane 20 (Tom20) and CerS1 (as a measure of mitophagy, middle row) in two-dimensional (2D) organoids developed from a patient with head and neck squamous cell carcinoma (HNSCC) in response to treatment with vehicle, LCL-768, sodium selenite (SoSe), rapamycin, or cisplatin ex vivo. Co-localization of cis-Golgi matrix protein 130 kDa (GM130) and Calnexin was used as a negative control (bottom row).
FIG. 14B is a graph showing the quantification of colocalization of Tom20 and CerS1 from the treated two-dimensional (2D) organoids described for FIG. 14A.
as §2

[12] = system: murine glioblastoma (GL261) cells; settings: 5 μM, 24 hour treatment
UM-SCC-1A cells [13] = assay: Subcellular accumulation by differential centrifugation and mass spectrometry; assay type: cell-based, human; settings: 10 μM, 6-24 hours
Description: FIG. 13D is a graph showing the subcellular accumulation of LCL-768 (10 micromolar (μM)) after 0, 3, 6, 9, or 24 hours in the nucleus, mitochondria and cytoplasm of human head and neck squamous cell carcinoma (HNSCC) cells (UM-SCC-1A cells) as measured by mass spectrometry/lipidomics after differential centrifugation.
The effects of LCL-768 on mitophagy induction in UM-SCC-IA cells transfected stably with the shRNA against LC3B (shLC3) was studied and compared to controls (UM-SCC-1A cells transfected with a control shRNA, shSCR). […] The subcellular accumulation of LCL-768 was studied in the same cells. Nucleus, mitochondria and cytoplasm in LCL-768-treated cells were isolated by differential centrifugation and LCL-768 accumulation was measured by mass spectrometry. […] Thus, these studies further support mitochondrial accumulation and efficacy of LCL-768 in inducing mitophagy in UM-SCC-1A cells.

U118 cells = assay: Western blotting of mitophagy markers, U118 cells; assay type: cell-based, human
Description: (§3) FIG. 10 is a composite gel image of Western blot analysis of extracts from non-cancerous human astrocytes (HA), 43RG32 and U118 cells treated with 0 micromolar (0 μM) or 5 μM LCL-768. The effects of LCL-768 on LC3-II activation, aconitase 2 (ACO2) degradation, and dynamin-related GTPase (Drp1) dephosphorylation at […] were measured as markers of mitophagy (n=3).
(§4) 43RG32 and U118 glioblastoma cells were treated with (+) or without (−) 5 micromolar (5 μM) LCL-768 and with (+) or without (−) the Drp1 inhibitor Mdivi-1. Actin was used as a loading control (n=3).
as §1

43RG32 cells = assay: Western blotting of mitophagy markers, 43RG32 cells; assay type: cell-based, human
Description: as §3, §4, §1

UM-SCC-1A-xenografts = system: UM-SCC-1A-xenografts
Source text: Tumor volume (cubic millimeters (mm^3)) is provided for both […] mice and mice treated with vehicle as a control.

HNSCC-IA cells = assay: Confocal immunofluorescence, colocalization of CerS1 and mitochondrial protein Tom20; assay type: cell-based, human; settings: 1 μM, 3 hours
Description: FIG. 3A is a series of confocal microscopy images of cells treated with 1 micromolar (1 μM) concentrations of a pyridinium-substituted ceramide-based selenium conjugated compound (LCL-768) or vehicle for 3 hours and labeled for Ceramide Synthase 1 (CerS1; top row), mitochondria (middle row) or both (bottom row).
UM-SCC-22A (squamous carcinoma) cells (50,000 per well) were plated on glass coverslips in a six-well plate for 18 hours. Cells were fixed and permeabilized using 4% paraformaldehyde (20 min) and 0.1% Triton X-100 in 1× phosphate-buffered saline (PBS) (pH 7.4) for 10 min. The cells were then blocked with 1% bovine serum albumin (BSA)/PBS (pH 7.4) for 1 hour. […] Immunofluorescence was performed using a Leica TCS SP2 AOBS confocal microscope (Leica Microsystems, Wetzler, Germany), an Olympus FV10i microscope (Olympus Corporation, Tokyo, Japan) with 543- and 488-nm channels for visualizing green and red fluorescence, or a Zeiss LSM 880 NLO Quasar confocal/multiphoton microscope with a Fast Airyscan super-resolution detector (Carl Zeiss, AG, Oberkochen, Germany). […] At least three random fields were selected for image quantification.

human glioblastoma cells = settings: 5 μM, 24 hour treatment, compared to LCL-461 or sodium selenite
[14] = system: non-cancerous human astrocytes (HA); settings: 5 μM
Description: as §3, §1

HNSCC-1A cells [15] = settings: 1 and 2.5 μM, live HNSCC-1A cells
[16] = system: normal human astrocyte (HA) cells; assay: MTT cell viability, normal human astrocytes; assay type: cell-based; settings: 5 μM, 24 hour treatment

For `CCCCCCCCCCCCCCCCCC(=O)N[C@@H](CO)[C@H](O)/C=C/CCCCCCCCC[n+]1ccccc1.[Br-]` [LCL-461, D-erythro-2-N-octadecanoyl-14-(1′-pyridinium)-sphingosine bromide, reference compound], the “LC3B-II levels (autophagy)” value (HNSCC-1A cells [1]) was “increased LC3B-II levels”, the “colocalization of ceramide and Tom20 (selenite-stress response)” value (HNSCC-1A cells [2]) was “does not cause a strong selenite-stress response” and the “levels of ACO2 compared to vehicle (lethal mitophagy)” value (HNSCC-1A cells [3]) was “decreased levels”. The “levels of ATP compared to vehicle (lethal mitophagy)” value (HNSCC-1A cells [4]) was “decreased levels”, the IC50 (HNSCC-1A cells [5]; Homo sapiens, 24 hours) was roughly 10 µM and the IC50 (HNSCC-1A cells [5]; Homo sapiens, 48 hours) was roughly 4 µM.
In the case of `CCCCCCCCCCCCCCCCCC(=O)N[C@@H](CO)[C@H](O)/C=C/CCCCCCCCC[n+]1ccccc1.CCCCCCCCCCCCCCCCCC(=O)N[C@@H](CO)[C@H](O)/C=C/CCCCCCCCC[n+]1ccccc1.O=[Se]([O-])[O-]` [LCL-768, D-erythro-14-(1′-pyridinium)-N-octadecanoyl-sphingosine selenite], the “tumor growth in the brain (MRI) compared to controls” value ([6]; osmotic pump into brain tumor) is reported as “remarkably reduced tumor growth”, the “increase of survival post-treatment” value ([6]; osmotic pump, vs vehicle) is reported as “about 10 days” and the “maximum tolerated dose (MTD)” value [7] is reported as 10 mg/kg. The “LC3B-II levels (autophagy)” value (HNSCC-1A cells [1]) was “increased LC3B-II levels”, the “cell death in mouse normal astrocytes” value (normal murine astrocytes) was “not induced” and the “mitophagy induction in non-cancerous adjacent tissue organoids” value [8] was “did not affect mitophagy induction”. For the same compound, the “endogenous C24-ceramide compared to controls” value (HNSCC organoids [9]) was “decreased”, the “colocalization of ceramide and Tom20 (selenite-stress response)” value (HNSCC-1A cells [2]) was “increased colocalization” and the “mitophagy induction in shSCR-controls” value (UM-SCC-1A cells [10]; 10 μM, 6, 9 and 24 hours, UM-SCC-1A shSCR) was “highly induced mitophagy”. For the same compound, the “mitophagy induction after knockdown of LC3” value (UM-SCC-1A cells [10]; 10 μM, UM-SCC-1A shLC3) was “almost completely prevented”, the “mitophagy (co-localization of CerS1 and Tom20) compared to vehicle-treated controls” value (HNSCC organoids [11]) was “induced mitophagy” and the “autophagic cell death in mouse glioblastoma cells” value [12] was “induced autophagic cell death in mouse glioblastoma cells at a higher level than either LCL-461 or sodium selenite”. The “subcellular accumulation (nucleus, mitochondria, cytoplasm)” value (UM-SCC-1A cells [13]) was “largely accumulated in the mitochondria”, the “ACO2 degradation (mitophagy)” value (U118 cells; 5 μM) was “induced” and the “LC-3B-II activation (autophagy marker)” value (U118 cells; 5 μM) was “induced”. For the same compound, the “levels of ACO2 compared to vehicle (lethal mitophagy)” value (HNSCC-1A cells [3]) was “decreased levels”, the “ACO2 degradation (mitophagy)” value (43RG32 cells; 5 μM) was “induced” and the “LC-3B-II activation (autophagy marker)” value (43RG32 cells; 5 μM) was “induced”. For the same compound, the “tumor growth compared to vehicle-treated mice” value (UM-SCC-1A-xenografts; 10 mg/kg intraperitoneal every other day, 21 days, SCID mice) was “inhibited tumor growth significantly”, the “mitophagy in xenograft-derived tumors (ACO2, P-S637 Drp1, S-NO-Drp1)” value (UM-SCC-1A-xenografts; day 21, Western blotting) was “induction of mitophagy” and the “accumulation in tumor vs adjacent non-tumorigenic tissues” value (UM-SCC-1A-xenografts; day 21, mass spectrometry) was “higher tumor accumulation”. For the same compound, the “colocalization of CerS1 and mitochondrial protein Tom20” value (HNSCC-IA cells) was “significant increase”, the “autophagic cell death in human glioblastoma cells” value (human glioblastoma cells) was “induced autophagic cell death” and the “levels of ATP compared to vehicle (lethal mitophagy)” value (HNSCC-1A cells [4]) was “decreased levels”. The “ACO2 degradation (mitophagy)” value ([14]; HA cells) was “not”, the “LC-3B-II activation (autophagy marker)” value ([14]; HA cells) was “not” and the “mitophagy (LC3-II activation, ACO2 degradation, Drp1 dephosphorylation as markers)” value ([14]; as stated in legend of FIG. 10) was “induces mitophagy”. For the same compound, the “time of exposure at which mitophagy is occurring” value (HNSCC-1A cells [15]) was no more than 90 min, the “cell death in human normal astrocytes” value [16] was “not induced” and the IC50 (HNSCC-1A cells [5]; 24 hours) was roughly 10 µM. It also gave an IC50 (HNSCC-1A cells [5]; 48 hours) of roughly 4 µM.
With `O=[Se](O)O` [sodium selenite, reference compound] the “cell death in mouse normal astrocytes” value (normal murine astrocytes) was “not induced” and the “cell death in human normal astrocytes” value [16] was “not induced”.
In the case of `N.N.[Cl][Pt][Cl]` [cisplatin, reference compound], the “mitophagy induction in non-cancerous adjacent tissue organoids” value [8] is reported as “did not affect mitophagy induction” and the “mitophagy (co-localization of CerS1 and Tom20) compared to vehicle-treated controls” value (HNSCC organoids [11]) is reported as “induced mitophagy”.
In the case of `COc1cc(-n2c(=S)[nH]c3ccccc3c2=O)c(Cl)cc1Cl` [Mdivi-1, reference compound], the “effect of Drp1 inhibition on LCL-768-mediated ACO2 degradation / mitophagy” value (U118 cells; with 5 μM LCL-768) is reported as “almost completely prevented; also recorded: prevents” and the “effect of Drp1 inhibition on LCL-768-mediated ACO2 degradation / mitophagy” value (43RG32 cells; with 5 μM LCL-768) is reported as “almost completely prevented; also recorded: prevents”.

From patent US12390490B2, “Sphingolipid-based selenium compounds, methods for their preparation, and pharmaceutical uses thereof, including as antitumor agents” (MUSC FOUNDATION FOR RESEARCH DEVELOPMENT, priority 2019, dated 2025)
